Measured values as given in US20120282710A1, “LIGAND BINDING DOMAINS OF NUCLEAR RECEPTORS IN CONTROLLABLE FORM AND METHODS INVOLVING THE SAME” (SANOFI, priority 2007, published 2012).
Counter-ions that a name gives are not always drawn.

Columns and labels:
RORαLBD protein = biological target: T1, RORαLBD protein (Homo sapiens, UniProt P35398); experiment: co-factor recruitment fluorescence resonance energy transfer assay (FRET), Example 1; format: biochemical; conditions: for co-factor recruitment (fluorescence ratios at 665 nm and 612 nm): time resolved measurement, 20 nM RORαLBD, 400 nM biotin-labeled peptide, 2 hrs
T1 construct: made in house; host or cells: Sf9 insect cells (baculovirus, pVL1393)
T1 sequence (P35398 with tags, fused parts or gaps): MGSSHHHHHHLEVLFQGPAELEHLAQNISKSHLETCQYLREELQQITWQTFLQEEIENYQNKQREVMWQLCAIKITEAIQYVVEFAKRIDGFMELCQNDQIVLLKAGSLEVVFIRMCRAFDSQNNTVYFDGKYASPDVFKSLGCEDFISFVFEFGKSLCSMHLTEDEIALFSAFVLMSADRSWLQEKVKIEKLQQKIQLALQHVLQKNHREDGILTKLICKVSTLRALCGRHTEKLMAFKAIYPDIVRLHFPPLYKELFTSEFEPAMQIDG
Protocol: 20 nM RORαLBD protein labeled with equimolar amounts of fluorescent anti-6×His antibody were incubated with 400 nM of the respective biotin-labeled peptide and equimolar amounts of a streptavidin-tagged fluorophore in a buffer containing 50 mM Tris, 100 mM NaCl, 1 mM DTT and 0.1% BSA for 2 hrs.

[1] = biological target: T2, 6×His-RORalphaLBD protein (Homo sapiens, UniProt P35398); experiment: TR-FRET assay measuring RORalphaLBD interaction with the LXXLL peptide SRC1−NR1+2, Example 2; format: biochemical; conditions: for binding of co-activator peptide SRC1−NR1+2 to RORα (increase in fluorescence intensity ratio): FIG. 2, increasing concentrations versus solvent only
T2 construct: made in house; host or cells: Sf9 insect cells (baculovirus, pVL1393)
T2 sequence (P35398 with tags, fused parts or gaps): T1 sequence (P35398 with tags, fused parts or gaps)
Text: In this assay, RORα is detected by a specific antibody bound to FRET donor Europium (Eu). The co-activator (CA) is biotin labeled. The biotin label is detecting by streptavidin, which encompasses the FRET acceptor allophycocyanin (APC) marker. If an agonist is bound to RORα, the NR is activated a CA binds to the NR. Accordingly, APC is brought into proximity of Eu, leading to a detecting FRET signal (left panel).
TR-FRET Assay Measuring RORalphaLBD Interaction with the LXXLL Peptide, SRC1−NR1+2
• 6×His-RORalpha: • source: Protein Production (Lab. Thomas Langer) treated with 3 mM LDS, stock solution at 1.5 mg/ml, storage at −20° C., pipetting at room temperature, corresponding to 47.5 μM (with MW 31.6 kD), Concentration in the assay=20 nM • SRC1−NR1+2: • source: JPT Peptide Technologies, stock solution at 250 μM, storage at −20° C., concentration in the assay=400 nM
• anti-6×His antibody: • source: Perkin Elmer #AD0110, stock solutions are at varying concentration with each batch, storage at −20° C., concentration in the assay=20 nM • strep-APC: • source: Perkin Elmer #AD0201, stock solutions are at varying concentration with each batch, storage at +4° C. after reconstitution, concentration in the assay=200 nM (based on streptavidin)
• Cholesterol sulfate: • source: SIGMA #C9523, stock solution in DMSO (30 mM), storage at −20° C.
• 50 mM Tris, 100 mM NaCl, 1 mM DTT, 0.1% Bovine Serum Albumin (add BSA fresh each day), adjust pH to 7.4
• Test plates: CORNING Costar #3639 (96 well half area)
All proteins, labels and compounds were diluted in the assay buffer just prior to assay setup. This assay was realised in 96 well half area plates. The final test volume was 20 μl. It is divided in 2 pipetting steps:
First, a mix containing 6×His-RORalphaLBD protein, BiotinSRC1−NR1+2 peptide, anti-6×His antibody and strep-APC was prepared on ice in the following concentrations: […]
The plates were incubated for 2 h in subdued light at room temperature and read on a Tecan ULTRA at room temperature with 340 nm excitation and 612 nm as Europium reference and 665 nm as APC FRET signal.

Row | Structure (SMILES) | EC50 (RORαLBD protein) [µM] | co-factor recruitment (fluorescence ratios at 665 nm and 612 nm) (RORαLBD protein) | EC50 [1] [µM] | binding of co-activator peptide SRC1−NR1+2 to RORα (increase in fluorescence intensity ratio) [1]
1 | CC(C)CCC[C@@H](C)[C@H]1CC[C@H]2[C@@H]3CC=C4C[C@@H](OS(=O)(=O)O)CC[C@]4(C)[C@H]3CC[C@]12C [Cholesterol sulfate] | 22 | dose-dependent co-factor recruitment | ~10 | dose-dependently induce binding
2 | CC(C)CCC[C@@H](C)[C@H]1CC[C@H]2[C@@H]3CC=C4C[C@@H](O)CC[C@]4(C)[C@H]3CC[C@]12C [Cholesterol] |  | dose-dependent co-factor recruitment |  | dose-dependently induce binding
